The NIST ThermoML archive (doi:10.1016/j.fluid.2012.06.013)

Columns and labels:
[1] = refractive index (Na D-line) (dimensionless); conditions: 298.15 K; 101.33 kPa; Liquid; Standard Abbe refractometry
[2] = Liquid; for mass density: 298.15 K, Vibrating tube method
[3] = xn = mol fraction of the nth substance listed; conditions: 298.15 K, 101 kPa, Liquid, Vibrating tube method

CC(=O)OCC(C)C [2-methylpropyl ethanoate]
Conditions	refractive index
[1]	1.3882

[2]
Conditions	Normal boiling temperature [°C]	mass density [kg/m3]
101.33 kPa	–	866.2
Ebulliometric method (Recirculating still)	116.29	–

Conditions	vapor or sublimation pressure [kPa]
[2], 461.03 K, Ebulliometric method (Recirculating still)	600

CC(=O)OCC(C)C [2-methylpropyl ethanoate] + CC(C)O
[3]
Conditions	mass density [kg/m3]
x1 = 0.051	787.4
x1 = 0.126	796.2
x1 = 0.204	804.7
x1 = 0.235	807.9
x1 = 0.352	819.1
x1 = 0.407	824
x1 = 0.501	831.8
x1 = 0.549	835.6
x1 = 0.677	845.1
x1 = 0.752	850.3
x1 = 0.799	853.5
x1 = 0.868	857.9
x1 = 0.949	863.1
x1 = 1	866.2

CC(=O)OCC(C)C [2-methylpropyl ethanoate] + CCCO
[3]
Conditions	mass density [kg/m3]
x1 = 0.053	805.4
x1 = 0.092	809.3
x1 = 0.145	814.5
x1 = 0.196	819.1
x1 = 0.249	823.5
x1 = 0.302	827.6
x1 = 0.346	830.9
x1 = 0.444	837.6
x1 = 0.482	840
x1 = 0.508	841.6
x1 = 0.565	845
x1 = 0.613	847.7
x1 = 0.719	853.3
x1 = 0.751	854.9
x1 = 0.804	857.5
x1 = 0.854	859.8
x1 = 0.889	861.4
x1 = 0.909	862.3
x1 = 0.953	864.2
x1 = 1	866.2

CC(=O)OCC(C)C [2-methylpropyl ethanoate] + CCO
[3]
Conditions	mass density [kg/m3]
x1 = 0.09	799.8
x1 = 0.153	808.3
x1 = 0.22	816.2
x1 = 0.277	822.2
x1 = 0.349	828.9
x1 = 0.44	836.3
x1 = 0.563	844.8
x1 = 0.657	850.4
x1 = 0.742	854.9
x1 = 0.85	860
x1 = 0.898	862.1
x1 = 0.942	863.9
x1 = 1	866.2

CCO [ethanol]
Conditions	mass density [kg/m3]
[2], 101 kPa	785.2

Conditions	vapor or sublimation pressure [kPa]
[2], 405.53 K, Ebulliometric method (Recirculating still)	600

CCO [ethanol] + CC(=O)OCC(C)C
Conditions	mass density [kg/m3]
[3], x2 = 0	785.2

CCCO [propan-1-ol]
Conditions	refractive index
[1]	1.3837

[2]
Conditions	Normal boiling temperature [°C]	mass density [kg/m3]
101.33 kPa	–	799.6
Ebulliometric method (Recirculating still)	97.29	–

[2]
Conditions	vapor or sublimation pressure [kPa]
313.98 K, Closed cell (Static) method	8
325.46 K, Closed cell (Static) method	14
331.28 K, Closed cell (Static) method	18
335.02 K, Closed cell (Static) method	22
339.49 K, Closed cell (Static) method	28
343.81 K, Closed cell (Static) method	34
347.33 K, Closed cell (Static) method	40
351.55 K, Closed cell (Static) method	48
353.46 K, Closed cell (Static) method	52
356.16 K, Closed cell (Static) method	58
359.07 K, Closed cell (Static) method	66
361.64 K, Closed cell (Static) method	72
363.69 K, Closed cell (Static) method	78
366.43 K, Closed cell (Static) method	88
367.86 K, Closed cell (Static) method	92
372.66 K, Closed cell (Static) method	110
374.63 K, Closed cell (Static) method	118
376.34 K, Closed cell (Static) method	126
378.84 K, Closed cell (Static) method	138
380.75 K, Closed cell (Static) method	148
382.61 K, Closed cell (Static) method	158
384.08 K, Closed cell (Static) method	166
385.46 K, Closed cell (Static) method	174
386.6 K, Closed cell (Static) method	182
387.29 K, Closed cell (Static) method	186
389.05 K, Closed cell (Static) method	198
390.26 K, Closed cell (Static) method	206
391.39 K, Closed cell (Static) method	214
393.67 K, Closed cell (Static) method	230
398.52 K, Closed cell (Static) method	260
406.65 K, Closed cell (Static) method	340
410.69 K, Closed cell (Static) method	382
414.02 K, Closed cell (Static) method	420
417.3 K, Closed cell (Static) method	460
418.84 K, Closed cell (Static) method	475
421.54 K, Closed cell (Static) method	512
423.55 K, Closed cell (Static) method	545
427.2 K, Ebulliometric method (Recirculating still)	600
427.98 K, Closed cell (Static) method	612
430.49 K, Closed cell (Static) method	655
432.23 K, Closed cell (Static) method	685
434.42 K, Closed cell (Static) method	722
436.33 K, Closed cell (Static) method	755
439.88 K, Closed cell (Static) method	825
441.78 K, Closed cell (Static) method	865
443 K, Closed cell (Static) method	890
444.97 K, Closed cell (Static) method	935
448.1 K, Closed cell (Static) method	1007
449.6 K, Closed cell (Static) method	1043
452.29 K, Closed cell (Static) method	1112
453.22 K, Closed cell (Static) method	1135
454.7 K, Closed cell (Static) method	1175
456 K, Closed cell (Static) method	1210
457.19 K, Closed cell (Static) method	1245
458.54 K, Closed cell (Static) method	1282
459.71 K, Closed cell (Static) method	1317
460.87 K, Closed cell (Static) method	1352
461.97 K, Closed cell (Static) method	1387
463.21 K, Closed cell (Static) method	1425
464.18 K, Closed cell (Static) method	1455
465.41 K, Closed cell (Static) method	1495
466.65 K, Closed cell (Static) method	1535
467.43 K, Closed cell (Static) method	1562
468.64 K, Closed cell (Static) method	1602
469.46 K, Closed cell (Static) method	1630

CCCO [propan-1-ol] + CC(=O)OCC(C)C
Conditions	mass density [kg/m3]
[3], x2 = 0	799.6

CC(C)O [propan-2-ol]
Conditions	refractive index
[1]	1.3751

[2]
Conditions	Normal boiling temperature [°C]	mass density [kg/m3]
101.33 kPa	–	781.3
Ebulliometric method (Recirculating still)	82.38	–

Conditions	vapor or sublimation pressure [kPa]
[2], 410.08 K, Ebulliometric method (Recirculating still)	600

CC(C)O [propan-2-ol] + CC(=O)OCC(C)C
Conditions	mass density [kg/m3]
[3], x2 = 0	781.3
